# Experimental data published in US7438933B2, “Maternal multi-nutrient against diabetes-related birth defects” (The Board of Trustees of the University of Arkansas System, priority 2004, dated 2008).
# What was measured:
# diabetic pregnancies = settings: experimental models; reduced from 25%; cited from earlier work
# embryos of diabetic rats = test: Dietary supplementation of pregnant STZ-diabetic and non-diabetic rats; neural tube defects in E12 embryos; assay type: in vivo, rat; settings: supplemented diet from day 1 of pregnancy, embryos at E12
# Protocol: To induce diabetes, 8-week-old Sprague-Dawley female rats are injected with 65 mg/kg of streptozotocin via the tail vein. Blood glucose levels are monitored daily (by tail vein puncture using a lancet) using a Prestige Smart blood glucose meter (Home Diagnostics, Fort Lauderdale, Fla.). Once a level of hyperglycemia indicative of diabetes (>250 mg/dl) is achieved, a sustained-release insulin pellet (Linplant, Linshin, Canada) will be inserted subcutaneously.
# When glucose levels are restored to normal (80-150 mg/dl) and are stable for at least three continuous days, matings can be set up with male rats of the same strain. Day zero of pregnancy is established by identifying spermatozoa in vaginal smears. At designated developmental stages, insulin pellets are withdrawn to generate hyperglycemia in the pregnant rats. A group of control rats will continuously receive insulin during the course of the experiment. Glucose levels and maternal weight are continuously monitored during the pregnancy. Since it has already been shown that there is no difference in embryonic development between streptozotocin/insulin-treated and non-streptozotocin-treated animals, the streptozotocin/insulin-treated groups are used as an equivalent of non-diabetic control. At the end of the experiment, rats are euthanized and embryos dissected out of the uterus for examination and analysis. At least four pregnant rats are included in each group, from which 40-60 embryos can be obtained for examination. For each type of study, at least three replicate experiments will be carried out.
# To investigate the effects of maternal hyperglycemia on embryonic malformations, the investigators employed a rat model that induces diabetes by streptozotocin (STZ). Subcutaneously implanted insulin pellets maintained euglycemia at the time of mating. On day 4 of pregnancy, the insulin pellets were removed, and the developing embryos were exposed to hyperglycemia during organogenesis (days 9-12). To maintain a euglycemic control, insulin pellets were retained in the body during the entire experimental course. On day 12, both sets of rats were euthanized, embryos were dissected out of the uteri for examination, and each embryo's yolk sac was collected for biochemical and molecular analyses.
# After removal from the dams, embryos were examined under a dissecting microscope and assessed for morphological malformations in a number of categories to determine the effects of maternal hyperglycemia. […]
# At E12, embryos were dissected out of uteri and evaluated for neural tube defects (NTDs), which were used as a measure of malformation rates.
# Bax = test: Western blot of phosphorylated Bax in yolk sac cells; assay type: in vivo, rat; settings: embryos of diabetic dams with supplementation, FIG. 4A
# Description: (§1) Apoptosis is mediated by a program involving a number of factors, including caspase3 and Bax (a member of the Bcl-2 family). Hyperglycemia may stimulate JNK activity, which then activates caspases and leads to apoptosis. Activation of Bax is also a hallmark of ongoing apoptosis. To determine whether caspase and Bax activation are involved in maternal diabetic embryopathy, changes in the levels of phosphorylated caspase3 and Bax in yolk sac cells from embryos with either diabetic or non-diabetic mothers were assessed. Cell lysates were resolved on 12% polyacrylamide gel and blotted on nylon membrane. The blots were probed with antibodies raised against phosphorylated caspase3 or Bax (Santa Cruz Biotechnologies, Santa Cruz, Calif.). Signals were detected using a chemiluminescence detection method and exposed to X-ray film (FIG. 4A). The density of the bands on X-ray film was measured using densitometry (VersaDoc Imaging System, Bio-Rad, Hercules, Calif.) and analyzed with one-dimensional analysis software (Bio-Rad; FIGS. 4B and C). The value of each band was calculated as a percentage of the control, which was set at 100%.
# yolk sacs = test: DNA laddering assay of apoptosis in embryonic yolk sacs after maternal supplementation; assay type: in vivo, rat; settings: embryos of diabetic mothers with supplemented diet, FIG. 7
# Protocol: To determine whether hyperglycemia is associated with programmed cell death in embryos, DNA laddering was examined in yolk sacs of embryos with either diabetic or non-diabetic mothers. Yolk sac tissues were collected from embryos, and DNA was extracted using DNeasy Tissue Kit (Qiagen, Valencia, Calif.) and resolved on 0.5% agarose gel. […] To examine whether supplemented diets affected apoptosis in developing embryos of diabetic dams, DNA fragmentation (an indicator of apoptosis) was analyzed using DNA laddering assays.
# caspase3 = test: Western blot of phosphorylated caspase3 in yolk sac cells; assay type: in vivo, rat; settings: embryos of diabetic dams with supplementation, FIG. 4A
# Description: as §1
# JNK1/2 = test: Western blot of phosphorylated JNK1/2 in embryonic yolk sac cells; assay type: in vivo, rat; settings: diabetic dams with supplemented diet, changed to the levels of non-diabetic rats, FIG. 8
# Protocol: (§2) The active forms of ERK and JNK are phosphorylated, so their activation in yolk sac tissues were assessed by Western blot detection of the corresponding phosphoproteins. The levels of phosphorylated Raf-1 which activates ERKs and Akt which is an antiapototic protein were also assessed by western blot. Yolk sac tissues were isolated, protein was extracted and analyzed using Western blotting with antibodies specific for phosphorylated ERK-1 and -2 (p-ERK1/2), JNK-1 and -2 (p-JNK1/2), RAF-1 and Akt (FIG. 6A). […] Levels of phosphorylated ERK1/2, JNK1/2, Raf-1 and Akt in embryonic yolk sac cells were evaluated using Western blot assays.
# ERK1/2 = test: Western blot of phosphorylated ERK1/2 in embryonic yolk sac cells; assay type: in vivo, rat; settings: diabetic dams with supplemented diet, changed to the levels of non-diabetic rats, FIG. 8
# Protocol: as §2
SMILES,malformation rate in diabetic pregnancies (diabetic pregnancies),NTDs (%) (embryos of diabetic rats; diabetic rats),NTDs (%) (embryos of diabetic rats; non-diabetic rats),phosphorylated Bax level in yolk sacs (Bax),DNA fragmentation (DNA laddering) in yolk sacs (yolk sacs),phosphorylated caspase3 level in yolk sacs (caspase3),level of activated JNKs (p-JNK1/2) in embryonic yolk sacs (JNK1/2),level of activated ERKs (p-ERK1/2) in embryonic yolk sacs (ERK1/2)
O=C(O)CCCC[C@@H]1CCSS1 (racemic) [lipoic acid],10%,,,,,,,
CCCCC/C=C\C/C=C\C/C=C\C/C=C\CCCC(=O)O [arachidonic acid],,7.6%,4.1%,reversal of increased caspase3 and Bax levels,DNA fragmentation was eliminated,reversal of increased caspase3 and Bax levels,altered embryo levels of activated ERKs and JNKs,altered embryo levels of activated ERKs and JNKs
"Cc1c(C)c2c(c(C)c1O)CC[C@@](C)(CCC[C@H](C)CCC[C@H](C)CCCC(C)C)O2 [vitamin E, α-tocopherol]",,6.9%,5.0%,reversal of increased caspase3 and Bax levels,DNA fragmentation was eliminated,reversal of increased caspase3 and Bax levels,altered embryo levels of activated ERKs and JNKs,altered embryo levels of activated ERKs and JNKs
